Laboratory results published in DBAASP.
Values after ≈ are worked out from the molar mass of the structure shown. Blank lines part the entries; values can stand above or below the compound they belong to.

Legend:
Assay in all cases: ≥ marks a high value that may be exact or a test limit, other limits are often not marked, values filed in µg/mL are converted to µM
[1] = system: Bacillus subtilis ATCC 6633
Escherichia coli = system: Escherichia coli
Candida albicans = system: Candida albicans
Staphylococcus aureus = system: Staphylococcus aureus
[2] = system: Escherichia coli ATCC 25922
[3] = system: Acinetobacter baumannii ATCC 19606
[4] = system: Staphylococcus aureus ATCC 25923
[5] = system: Pseudomonas aeruginosa ATCC 27853
[6] = system: Klebsiella pneumoniae ATCC 700603
[7] = system: Pseudomonas aeruginosa ATCC 9027
Acinetobacter baumannii = system: Acinetobacter baumannii
[8] = system: Staphylococcus epidermidis ATCC 12228
[9] = system: Candida albicans ATCC 90028
Klebsiella pneumoniae = system: Klebsiella pneumoniae
Escherichia coli UB1005 = system: Escherichia coli UB1005
[10] = system: Pseudomonas aeruginosa PAO1
[11] = system: Candida albicans ATCC 10231
[12] = system: Staphylococcus aureus ATCC 29213

- MIC [1]: ≥ 100 µM
SMILES: CC[C@H](C)[C@H](NC(=O)[C@H](CCCN=C(N)N)NC(=O)[C@@H](NC(=O)[C@@H]1CCCN1C(=O)[C@H](CCCN=C(N)N)NC(=O)[C@@H](NC(=O)[C@@H]1CCCN1C(=O)[C@H](CCCN=C(N)N)NC(=O)[C@H](CC(C)C)NC(=O)CNC(=O)[C@H](Cc1cnc[nH]1)NC(=O)[C@@H]1CCCN1C(=O)CNC(=O)[C@H](CC(C)C)NC(=O)[C@H](CC(N)=O)NC(=O)[C@H](Cc1c[nH]c2ccccc12)NC(=O)[C@H](C)NC(=O)[C@@H](NC(=O)[C@H](C)N)[C@@H](C)O)[C@@H](C)CC)[C@@H](C)CC)C(=O)N[C@@H](CCCN=C(N)N)C(=O)N1CCC[C@H]1C(=O)N[C@@H](CC(C)C)C(=O)N[C@@H](CS)C(=O)NCC(=O)N[C@@H](CCCCN)C(=O)N[C@@H](CC(=O)O)C(=O)N[C@@H](CCCCN)C(=O)N[C@@H](CO)C(=O)O [ATAWNLGPHGLRPIRPIRIRPLCGKDKS]

- MIC [2]: 115 µM (≈ 128 µg/mL)
- MIC [3]: > 115 µM
- MIC [4]: > 115 µM
- MIC [5]: 7.17 µM (≈ 7.99 µg/mL)
SMILES: CC(C)C[C@H](NC(=O)[C@H](CC(C)C)NC(=O)[C@H](CCCCN)NC(=O)[C@H](CCCCN)NC(=O)[C@H](CC(C)C)NC(=O)[C@H](CC(N)=O)NC(=O)[C@H](CCCCN)NC(=O)[C@H](CC(C)C)NC(=O)[C@@H](N)Cc1ccccc1)C(N)=O [FLKNLKKLL]

- MIC [6]: 64 µM (≈ 118 µg/mL)
- MIC [7]: > 64 µM
- MIC (Acinetobacter baumannii): ≥ 64 µM
- MIC [2]: 64 µM (≈ 118 µg/mL)
- MIC [4]: > 64 µM
SMILES: CC[C@H](C)[C@H](N)C(=O)N[C@@H](Cc1cnc[nH]1)C(=O)N[C@@H](CCCCN)C(=O)N[C@@H](CC(C)C)C(=O)N[C@H](C(=O)N[C@@H](CCCCN)C(=O)N[C@@H](CC(C)C)C(=O)N[C@@H](Cc1c[nH]c2ccccc12)C(=O)N[C@@H](CC(C)C)C(=O)N[C@@H](CC(N)=O)C(=O)N[C@@H](CC(C)C)C(=O)NCC(=O)N[C@@H](CCCCN)C(=O)N[C@@H](CCCCN)C(=O)N[C@@H](Cc1ccccc1)C(=O)O)C(C)C [IHKLVKLWLNLGKKF]

- MIC [8]: 64 µM (≈ 137 µg/mL)
- MIC [9]: ≥ 64 µM
- MIC [4]: 128 µM (≈ 274 µg/mL)
SMILES: CC[C@H](C)[C@H](NC(=O)[C@H](CC(N)=O)NC(=O)[C@H](Cc1cnc[nH]1)NC(=O)[C@H](Cc1ccccc1)NC(=O)[C@H](CC(C)C)NC(=O)[C@H](CCSC)NC(=O)CNC(=O)[C@H](CC(C)C)NC(=O)[C@H](CCSC)NC(=O)[C@H](CCCCN)NC(=O)[C@@H](N)CC(C)C)C(=O)N[C@@H](CCCN=C(N)N)C(=O)N[C@@H](CC(N)=O)C(=O)N[C@H](C(=O)N[C@@H](CC(C)C)C(=O)N[C@@H](CCCCN)C(=O)N[C@H](C(=O)N[C@H](C(N)=O)C(C)C)[C@@H](C)O)[C@@H](C)CC [LKMLGMLFHNIRNILKTV]

- MIC [1]: 9.92 µM (≈ 16 µg/mL)
- MIC [2]: 2.48 µM (≈ 4 µg/mL)
- MIC [4]: 9.92 µM (≈ 16 µg/mL)
- MIC [5]: 4.96 µM (≈ 8 µg/mL)
SMILES: CC(C)C[C@H](NC(=O)CNC(=O)[C@H](C)NC(=O)[C@@H](NC(=O)[C@H](CCCN=C(N)N)NC(=O)[C@H](CCCN=C(N)N)NC(=O)[C@H](CC(C)C)NC(=O)[C@@H](N)CC(C)C)C(C)C)C(=O)N[C@@H](CC(C)C)C(=O)N[C@@H](CCCCN)C(=O)N[C@@H](CCC(N)=O)C(=O)N[C@@H](Cc1ccccc1)C(=O)N[C@@H](C)C(=O)N[C@@H](CCCCN)C(=O)O [LLRRVAGLLKQFAK]

- MIC (Candida albicans): > 189 µM
- MIC (Klebsiella pneumoniae): 189 µM (≈ 512 µg/mL)
- MIC [2]: 47.2 µM (≈ 128 µg/mL)
- MIC [4]: 189 µM (≈ 512 µg/mL)
SMILES: CC[C@H](C)[C@H](NC(=O)CNC(=O)[C@H](CC(N)=O)NC(=O)[C@@H](NC(=O)[C@H](C)NC(=O)[C@H](CC(N)=O)NC(=O)[C@H](CC(C)C)NC(=O)[C@H](C)NC(=O)[C@H](C)NC(=O)[C@H](CCCN=C(N)N)NC(=O)CNC(=O)[C@H](C)NC(=O)[C@H](C)NC(=O)[C@H](C)NC(=O)[C@H](C)NC(=O)[C@H](CCSC)NC(=O)[C@H](CC(=O)O)NC(=O)[C@H](CCCCN)NC(=O)[C@@H](NC(=O)[C@H](CO)NC(=O)[C@H](CO)NC(=O)[C@H](Cc1c[nH]c2ccccc12)NC(=O)[C@H](CC(C)C)NC(=O)[C@@H](N)CO)[C@@H](C)CC)C(C)C)C(=O)N[C@@H](CC(C)C)C(=O)N[C@@H](CC(N)=O)C(=O)N1CCC[C@H]1C(N)=O [SLWSSIKDMAAAAGRAALNAVNGILNP]

- MIC (Escherichia coli): > 200 µM
- MIC (Candida albicans): > 200 µM
- MIC (Staphylococcus aureus): > 200 µM
SMILES: CSCC[C@H](NC(=O)[C@@H](N)CO)C(=O)N[C@@H](CC(C)C)C(=O)N[C@@H](CO)C(=O)N[C@H](C(=O)N[C@@H](CC(C)C)C(=O)N[C@@H](CCCCN)C(=O)N[C@@H](CC(N)=O)C(=O)N[C@@H](CC(C)C)C(=O)NCC(=O)N[C@@H](CCCCN)C(=O)N[C@H](C(=O)NCC(=O)N[C@@H](CC(C)C)C(=O)NCC(=O)N[C@@H](Cc1ccccc1)C(=O)N[C@H](C(=O)N[C@@H](C)C(=O)O)C(C)C)C(C)C)C(C)C [SMLSVLKNLGKVGLGFVA]

- MIC [11]: 69.1 µM (≈ 151 µg/mL)
- MIC [12]: 1.78 µM (≈ 3.87 µg/mL)
- MIC [5]: 4.54 µM (≈ 9.9 µg/mL)
SMILES: CC(C)C[C@H](NC(=O)[C@H](CCCCN)NC(=O)[C@H](Cc1ccccc1)NC(=O)[C@H](CC(C)C)NC(=O)[C@H](CC(C)C)NC(=O)[C@@H]1CCCN1C(=O)[C@H](CCCCN)NC(=O)[C@H](CC(C)C)NC(=O)[C@H](CCCCN)NC(=O)[C@@H]1CCCN1C(=O)[C@H](CC(C)C)NC(=O)[C@H](CC(C)C)NC(=O)[C@H](CC(C)C)NC(=O)[C@H](CCCCN)NC(=O)[C@H](CC(C)C)NC(=O)[C@H](CC(C)C)NC(=O)[C@H](CCCCN)NC(=O)[C@@H](N)Cc1ccc(O)cc1)C(N)=O [YKLLKLLLPKLKPLLFKL]

Further lines, the compound ahead of its results:

SMILES: CC[C@H](C)[C@H](NC(=O)[C@H](CCCCN)NC(=O)[C@@H](N)CS)C(=O)N[C@@H](CC(N)=O)C(=O)N[C@@H](CCCCN)C(=O)N[C@@H](CCC(N)=O)C(=O)N[C@@H](CS)C(=O)O [CKINKQC]
- MIC (Escherichia coli): > 200 µM
- MIC (Candida albicans): > 200 µM
- MIC (Staphylococcus aureus): > 200 µM

SMILES: CC(C)C[C@H](NC(=O)[C@H](CC(C)C)NC(=O)[C@H](CCCCN)NC(=O)[C@H](CCCCN)NC(=O)[C@H](CC(C)C)NC(=O)[C@H](CCC(=O)O)NC(=O)[C@H](CCCCN)NC(=O)[C@H](CC(C)C)NC(=O)[C@@H](N)Cc1ccccc1)C(N)=O [FLKELKKLL]
- MIC [2]: 113 µM (≈ 128 µg/mL)
- MIC [3]: 113 µM (≈ 128 µg/mL)
- MIC [4]: > 113 µM
- MIC [5]: 14.1 µM (≈ 16 µg/mL)

SMILES: CC(C)C[C@H](NC(=O)[C@H](CC(C)C)NC(=O)[C@H](CCCCN)NC(=O)[C@H](CCCCN)NC(=O)[C@H](CC(C)C)NC(=O)[C@@H]1CCCN1C(=O)[C@H](CCCCN)NC(=O)[C@H](CC(C)C)NC(=O)[C@@H](N)Cc1ccccc1)C(N)=O [FLKPLKKLL]
- MIC [2]: > 116 µM
- MIC [3]: > 116 µM
- MIC [4]: > 116 µM
- MIC [5]: 7.28 µM (≈ 7.99 µg/mL)

SMILES: CC(C)C[C@H](NC(=O)[C@H](CC(C)C)NC(=O)[C@H](CCCCN)NC(=O)[C@H](CCCCN)NC(=O)[C@H](CC(C)C)NC(=O)[C@@H](NC(=O)[C@H](CCCCN)NC(=O)[C@H](CC(C)C)NC(=O)[C@@H](N)Cc1ccccc1)C(C)C)C(N)=O [FLKVLKKLL]
- MIC [2]: 29.1 µM (≈ 32 µg/mL)
- MIC [3]: 29.1 µM (≈ 32 µg/mL)
- MIC [4]: 29.1 µM (≈ 32 µg/mL)
- MIC [5]: 7.26 µM (≈ 7.99 µg/mL)

SMILES: CC[C@H](C)[C@H](NC(=O)[C@@H](NC(=O)[C@@H]1CCCN1C(=O)[C@@H](NC(=O)[C@@H]1CCCN1C(=O)[C@H](CCCCN)NC(=O)[C@H](CCCCN)NC(=O)[C@H](CO)NC(=O)CN)C(C)C)[C@@H](C)CC)C(=O)N[C@@H](Cc1ccc(O)cc1)C(=O)N[C@H]1CSSC[C@@H](C(=O)N[C@@H](CCC(N)=O)C(=O)N[C@@H](CCCN=C(N)N)C(=O)N[C@@H](CCSC)C(=O)O)NC(=O)[C@H](CCCCN)NC(=O)[C@H](C)NC(=O)[C@H]([C@@H](C)O)NC(=O)[C@H](CCCN=C(N)N)NC(=O)[C@H](CCCN=C(N)N)NC(=O)[C@H](CCC(N)=O)NC1=O [GSKKPVPIIYCQRRTAKCQRM]
- MIC [6]: 13 µM (≈ 32 µg/mL)
- MIC [2]: 13 µM (≈ 32 µg/mL)

SMILES: CC[C@H](C)[C@H](NC(=O)[C@H](CCCN=C(N)N)NC(=O)[C@H](CCCN=C(N)N)NC(=O)[C@@H]1CCCN1C(=O)[C@H](Cc1c[nH]c2ccccc12)NC(=O)[C@H](CCCN=C(N)N)NC(=O)[C@@H]1CCCN1C(=O)[C@H](CCCN=C(N)N)NC(=O)[C@@H]1CCCN1C(=O)[C@H](CC(C)C)NC(=O)[C@H](Cc1ccc(O)cc1)NC(=O)[C@@H]1CCCN1C(=O)[C@@H]1CCCN1C(=O)[C@H](CCCCN)NC(=O)[C@H](CC(=O)O)NC(=O)[C@@H](N)C(C)C)C(=O)N[C@@H](Cc1ccc(O)cc1)C(=O)N[C@@H](CC(N)=O)C(=O)N[C@@H](CCCN=C(N)N)C(N)=O [VDKPPYLPRPRWPRRIYNR]
- MIC (Escherichia coli UB1005): 1.01 µM (≈ 2.5 µg/mL)
- MIC [10]: 12.9 µM (≈ 32 µg/mL)
- MIC [4]: 6.45 µM (≈ 16 µg/mL)
